Calls of active or inactive are those of the source.
Columns and labels:
Cytochrome P450 2D6 = Cytochrome P450 2D6 (Homo sapiens, UniProt P10635);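 further: CYP2D6 member of a cytochrome P450 panel assay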
Cytochrome P450 2C9 = Cytochrome P450 2C9 (Homo sapiens, UniProt P11712)
[1] = molecular target: T1, Voltage-gated N-type calcium channel alpha-1B subunit/Amyloid beta A4 precursor protein-binding family A member 1 (Homo sapiens, UniProt Q00975+Q02410); format: protein assay
[2] = Trypanosoma cruzi growth suppression in host cells – NIH3T3 host cells, beta-gal luminescence, confirmation (AID 2044); format: functional, cell-based;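 further: intracellular parasites grown in NIH/3T3 mouse fibroblasts as host cells; luminescent beta-galactosidase reporter signal from transgenic T. cruzi replicating inside host cells; inhibitors lower the luminescence signal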
[3] = NIH3T3 cell viability loss – ATP luminescence, mouse fibroblasts, counter-screen, dose response (AID 2010); format: functional, cell-based;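 further: cells exposed to compound for about 90 hours before reading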
[4] = molecular target: T1, Voltage-gated N-type calcium channel alpha-1B subunit/Amyloid beta A4 precursor protein-binding family A member 1; format: protein assay; remark: listed apart in the source
Genome polyprotein = Genome polyprotein (dengue virus type 2, UniProt P29990); experiment: flavivirus cap methylation enzyme inhibition – biochemical, confirmation dose response, primary screen (AID 588689); format: functional
[5] = molecular target: T2, Histone-lysine N-methyltransferase NSD2 (Homo sapiens, UniProt O96028); format: biochemical
T2 sequence (O96028 whole entry): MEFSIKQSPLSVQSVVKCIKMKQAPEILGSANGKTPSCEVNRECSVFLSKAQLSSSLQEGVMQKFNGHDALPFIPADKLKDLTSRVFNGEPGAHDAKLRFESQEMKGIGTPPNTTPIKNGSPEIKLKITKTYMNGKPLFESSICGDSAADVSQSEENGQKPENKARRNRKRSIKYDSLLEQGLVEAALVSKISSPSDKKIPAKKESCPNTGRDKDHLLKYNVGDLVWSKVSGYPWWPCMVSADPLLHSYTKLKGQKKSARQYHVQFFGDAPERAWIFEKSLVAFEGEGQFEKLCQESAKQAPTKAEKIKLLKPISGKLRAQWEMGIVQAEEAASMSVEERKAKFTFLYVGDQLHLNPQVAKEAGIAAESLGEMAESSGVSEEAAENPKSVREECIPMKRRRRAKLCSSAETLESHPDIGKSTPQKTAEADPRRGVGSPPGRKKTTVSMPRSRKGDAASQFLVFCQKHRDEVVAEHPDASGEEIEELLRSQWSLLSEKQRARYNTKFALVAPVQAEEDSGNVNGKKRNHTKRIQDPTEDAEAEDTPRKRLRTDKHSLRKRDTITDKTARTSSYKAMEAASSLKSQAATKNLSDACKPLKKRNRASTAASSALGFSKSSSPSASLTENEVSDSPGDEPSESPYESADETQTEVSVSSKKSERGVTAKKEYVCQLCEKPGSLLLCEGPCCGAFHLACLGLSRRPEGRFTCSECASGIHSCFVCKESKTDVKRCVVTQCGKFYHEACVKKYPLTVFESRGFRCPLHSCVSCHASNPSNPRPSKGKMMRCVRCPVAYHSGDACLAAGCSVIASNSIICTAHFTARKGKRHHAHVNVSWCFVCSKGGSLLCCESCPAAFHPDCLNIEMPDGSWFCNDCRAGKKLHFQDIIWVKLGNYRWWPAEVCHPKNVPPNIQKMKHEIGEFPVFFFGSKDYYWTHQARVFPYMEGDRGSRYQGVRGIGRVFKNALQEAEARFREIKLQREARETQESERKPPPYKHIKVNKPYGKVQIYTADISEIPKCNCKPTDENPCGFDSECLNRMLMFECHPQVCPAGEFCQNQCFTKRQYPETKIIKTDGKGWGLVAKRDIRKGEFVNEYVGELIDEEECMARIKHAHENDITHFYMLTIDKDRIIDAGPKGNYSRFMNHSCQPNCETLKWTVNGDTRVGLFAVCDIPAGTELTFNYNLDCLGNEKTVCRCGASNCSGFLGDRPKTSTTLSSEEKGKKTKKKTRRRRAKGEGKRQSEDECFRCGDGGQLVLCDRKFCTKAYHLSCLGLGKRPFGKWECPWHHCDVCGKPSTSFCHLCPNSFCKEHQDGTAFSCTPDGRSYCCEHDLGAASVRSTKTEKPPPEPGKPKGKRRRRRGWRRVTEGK

Vero [6] = experiment: cells; format: functional, cell-based; settings: Chlorocebus sabaeus
Vero [7] = experiment: cells; format: functional; settings: Chlorocebus sabaeus
[8] = molecular target: Eukaryotic translation initiation factor 4E (Mus musculus, UniProt P63073); experiment: blockers of eIF4G binding by eIF4E – biochemical, TR-FRET, dose response (AID 855); format: functional;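 further: potency for disrupting eIF4E binding to eIF4GI seen as loss of FRET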
[9] = molecular target: T3, Short transient receptor potential channel 4 (Mus musculus, UniProt Q9QUQ5); experiment: block of DAMGO-driven TRPC4 calcium entry – cell-based, HEK293 TRPC4/mu-opioid, Fluo-4 calcium, dose response (AID 434942); format: functional;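 further: potency of inhibitors blocking the TRPC4 calcium response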
T3 sequence (Q9QUQ5 whole entry): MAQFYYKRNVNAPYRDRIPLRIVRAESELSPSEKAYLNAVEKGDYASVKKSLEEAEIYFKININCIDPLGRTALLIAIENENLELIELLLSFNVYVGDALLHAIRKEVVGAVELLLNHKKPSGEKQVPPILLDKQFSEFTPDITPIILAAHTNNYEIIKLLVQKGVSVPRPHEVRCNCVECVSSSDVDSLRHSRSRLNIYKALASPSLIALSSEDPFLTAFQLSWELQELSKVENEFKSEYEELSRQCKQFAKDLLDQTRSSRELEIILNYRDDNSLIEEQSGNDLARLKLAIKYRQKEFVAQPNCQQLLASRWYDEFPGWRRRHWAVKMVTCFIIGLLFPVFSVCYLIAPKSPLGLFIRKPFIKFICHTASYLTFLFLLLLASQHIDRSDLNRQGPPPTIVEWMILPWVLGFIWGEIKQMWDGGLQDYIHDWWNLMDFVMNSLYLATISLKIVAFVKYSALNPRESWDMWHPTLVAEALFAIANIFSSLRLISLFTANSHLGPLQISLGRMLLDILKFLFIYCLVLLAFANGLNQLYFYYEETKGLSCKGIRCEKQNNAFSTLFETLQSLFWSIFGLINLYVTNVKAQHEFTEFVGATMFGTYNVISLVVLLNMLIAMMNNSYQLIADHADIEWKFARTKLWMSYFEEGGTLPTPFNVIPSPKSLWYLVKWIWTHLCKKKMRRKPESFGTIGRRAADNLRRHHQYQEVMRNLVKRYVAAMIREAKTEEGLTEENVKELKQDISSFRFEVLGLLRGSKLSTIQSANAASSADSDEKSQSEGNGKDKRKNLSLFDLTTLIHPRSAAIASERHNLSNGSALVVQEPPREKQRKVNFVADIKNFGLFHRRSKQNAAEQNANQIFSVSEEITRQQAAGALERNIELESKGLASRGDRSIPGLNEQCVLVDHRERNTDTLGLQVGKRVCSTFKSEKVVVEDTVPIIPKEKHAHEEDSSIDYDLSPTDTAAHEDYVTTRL

[10] = OVCAR-3 cell viability loss – plate reader, dry powder samples, PAX8 inhibitor project, dose response (AID 743044); format: functional, cell-based
Paired box protein Pax-8 = Paired box protein Pax-8 (Homo sapiens, UniProt Q06710); experiment: PAX8 transcriptional activity inhibition in RMG-I – RMG-I cells, luciferase, cherry-pick, dose response (AID 687027); format: functional, cell-based;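 further: luciferase reporter driven by Pax8 target thyroperoxidase promoter measured by SteadyGlo luminescence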
[11] = OVCAR8 cell viability loss – plate reader, dry powder samples, PAX8 project, dose response (AID 743197); format: functional, cell-based; settings: OVCAR-8
[12] = IGROV1 cell killing – plate reader, dry powder samples, PAX8 inhibitor project, dose response (AID 743043); format: functional, cell-based; settings: IGROV-1
[13] = molecular target: Mitogen-activated protein kinase 10 (Homo sapiens, UniProt P53779); experiment: Dose response biochemical screening assay for inhibitors of c-Jun N-Terminal Kinase 3 (JNK3). [Related pubchem assays: 746 ]
[14] = THP-1 cell cytotoxicity, dose response, cytotoxicity control for non-replicating M. tuberculosis project (AID 489025); format: functional
cells [15] = format: functional
[16] = P. falciparum Dd2 growth inhibitors, dose response, SYBR Green, cherry-picked samples (AID 1159567); format: functional, cell-based
[17] = growth inhibition of PfATP4-mutant resistant parasites – NITD609-resistant line, SYBR Green, dry powder, dose response (AID 1159571); format: functional, cell-based;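 further: parasites synchronized at ring stage by sorbitol before testing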
[18] = Dd2 malaria parasite growth inhibition potency – SYBR Green, dry powder samples, dose response (AID 1159566); format: functional, cell-based;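 further: potency for growth inhibition with lower SYBR green DNA signal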
[19] = growth inhibition of yeast DHODH-expressing 3D7 parasites – SYBR Green, dry powder samples, dose response (AID 1159570); format: functional, cell-based;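 further: parasite growth measured after 72 hours of compound exposure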
[20] = Luminescence Cell-Based Dose Response HTS to Identify Inhibitors of 5'UTR Stem-Loop Driven Prion Protein mRNA Translation in H4 Neuroglioblastoma Cells. [Related pubchem assays: 1827 (Project Summary), 1813 (Primary HTS)]; format: functional
Nonstructural protein 1 = Nonstructural protein 1 (Influenza A virus, UniProt Q194T2); format: functional, Influenza A virus (A/California/07/2009(H1N1))
[21] = luciferase reporter signal suppression in cells – H4 neuroglioma cells, luminescence, dose response (AID 1990); format: functional, cell-based
[22] = alpha-synuclein stem-loop luciferase translation blockers – H4 neuroglioma cells, luminescence, confirmation (AID 1988); format: functional, cell-based
cells [23] = format: functional, cell-based
cells [24] = format: functional, cell-based; remark: listed apart in the source

Paired box protein Pax-8, sequence (Q06710 whole entry): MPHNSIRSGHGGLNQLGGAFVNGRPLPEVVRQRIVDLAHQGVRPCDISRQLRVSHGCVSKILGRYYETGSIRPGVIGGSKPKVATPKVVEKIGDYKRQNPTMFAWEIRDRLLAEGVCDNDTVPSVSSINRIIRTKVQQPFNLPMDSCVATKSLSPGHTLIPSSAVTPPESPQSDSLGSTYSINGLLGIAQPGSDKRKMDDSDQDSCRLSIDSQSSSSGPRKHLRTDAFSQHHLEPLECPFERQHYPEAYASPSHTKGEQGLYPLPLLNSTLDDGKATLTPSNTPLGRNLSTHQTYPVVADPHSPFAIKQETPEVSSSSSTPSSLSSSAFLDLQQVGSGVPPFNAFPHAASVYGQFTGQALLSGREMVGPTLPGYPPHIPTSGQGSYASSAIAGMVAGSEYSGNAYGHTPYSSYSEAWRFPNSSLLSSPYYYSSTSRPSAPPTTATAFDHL
Mitogen-activated protein kinase 10, sequence (P53779 whole entry): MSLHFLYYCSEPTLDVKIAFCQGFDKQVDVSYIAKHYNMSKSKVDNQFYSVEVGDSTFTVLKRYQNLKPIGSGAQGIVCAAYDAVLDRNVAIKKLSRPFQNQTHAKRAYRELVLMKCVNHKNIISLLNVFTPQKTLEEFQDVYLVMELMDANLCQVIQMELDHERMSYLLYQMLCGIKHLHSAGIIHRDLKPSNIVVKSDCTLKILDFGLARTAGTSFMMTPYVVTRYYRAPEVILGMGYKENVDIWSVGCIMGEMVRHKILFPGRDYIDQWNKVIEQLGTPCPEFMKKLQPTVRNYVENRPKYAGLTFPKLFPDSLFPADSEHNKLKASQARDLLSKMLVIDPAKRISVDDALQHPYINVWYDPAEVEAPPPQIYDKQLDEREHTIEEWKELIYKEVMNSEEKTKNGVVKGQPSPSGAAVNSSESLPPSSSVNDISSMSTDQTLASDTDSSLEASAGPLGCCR
Cytochrome P450 2D6, sequence (P10635 whole entry): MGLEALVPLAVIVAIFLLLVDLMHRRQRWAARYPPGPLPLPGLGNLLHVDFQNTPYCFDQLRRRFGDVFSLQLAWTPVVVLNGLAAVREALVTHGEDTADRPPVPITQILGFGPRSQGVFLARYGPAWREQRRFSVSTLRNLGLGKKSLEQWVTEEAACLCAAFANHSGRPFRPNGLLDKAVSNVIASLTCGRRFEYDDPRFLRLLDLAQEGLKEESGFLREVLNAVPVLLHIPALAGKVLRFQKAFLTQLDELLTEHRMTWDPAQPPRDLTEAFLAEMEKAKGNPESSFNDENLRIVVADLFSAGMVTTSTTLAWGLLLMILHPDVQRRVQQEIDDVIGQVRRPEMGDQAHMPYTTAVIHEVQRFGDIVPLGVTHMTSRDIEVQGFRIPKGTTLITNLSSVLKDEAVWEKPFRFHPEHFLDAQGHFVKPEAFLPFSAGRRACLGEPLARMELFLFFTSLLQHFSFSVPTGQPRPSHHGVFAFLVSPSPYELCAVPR
T1 sequence (Q00975 whole entry): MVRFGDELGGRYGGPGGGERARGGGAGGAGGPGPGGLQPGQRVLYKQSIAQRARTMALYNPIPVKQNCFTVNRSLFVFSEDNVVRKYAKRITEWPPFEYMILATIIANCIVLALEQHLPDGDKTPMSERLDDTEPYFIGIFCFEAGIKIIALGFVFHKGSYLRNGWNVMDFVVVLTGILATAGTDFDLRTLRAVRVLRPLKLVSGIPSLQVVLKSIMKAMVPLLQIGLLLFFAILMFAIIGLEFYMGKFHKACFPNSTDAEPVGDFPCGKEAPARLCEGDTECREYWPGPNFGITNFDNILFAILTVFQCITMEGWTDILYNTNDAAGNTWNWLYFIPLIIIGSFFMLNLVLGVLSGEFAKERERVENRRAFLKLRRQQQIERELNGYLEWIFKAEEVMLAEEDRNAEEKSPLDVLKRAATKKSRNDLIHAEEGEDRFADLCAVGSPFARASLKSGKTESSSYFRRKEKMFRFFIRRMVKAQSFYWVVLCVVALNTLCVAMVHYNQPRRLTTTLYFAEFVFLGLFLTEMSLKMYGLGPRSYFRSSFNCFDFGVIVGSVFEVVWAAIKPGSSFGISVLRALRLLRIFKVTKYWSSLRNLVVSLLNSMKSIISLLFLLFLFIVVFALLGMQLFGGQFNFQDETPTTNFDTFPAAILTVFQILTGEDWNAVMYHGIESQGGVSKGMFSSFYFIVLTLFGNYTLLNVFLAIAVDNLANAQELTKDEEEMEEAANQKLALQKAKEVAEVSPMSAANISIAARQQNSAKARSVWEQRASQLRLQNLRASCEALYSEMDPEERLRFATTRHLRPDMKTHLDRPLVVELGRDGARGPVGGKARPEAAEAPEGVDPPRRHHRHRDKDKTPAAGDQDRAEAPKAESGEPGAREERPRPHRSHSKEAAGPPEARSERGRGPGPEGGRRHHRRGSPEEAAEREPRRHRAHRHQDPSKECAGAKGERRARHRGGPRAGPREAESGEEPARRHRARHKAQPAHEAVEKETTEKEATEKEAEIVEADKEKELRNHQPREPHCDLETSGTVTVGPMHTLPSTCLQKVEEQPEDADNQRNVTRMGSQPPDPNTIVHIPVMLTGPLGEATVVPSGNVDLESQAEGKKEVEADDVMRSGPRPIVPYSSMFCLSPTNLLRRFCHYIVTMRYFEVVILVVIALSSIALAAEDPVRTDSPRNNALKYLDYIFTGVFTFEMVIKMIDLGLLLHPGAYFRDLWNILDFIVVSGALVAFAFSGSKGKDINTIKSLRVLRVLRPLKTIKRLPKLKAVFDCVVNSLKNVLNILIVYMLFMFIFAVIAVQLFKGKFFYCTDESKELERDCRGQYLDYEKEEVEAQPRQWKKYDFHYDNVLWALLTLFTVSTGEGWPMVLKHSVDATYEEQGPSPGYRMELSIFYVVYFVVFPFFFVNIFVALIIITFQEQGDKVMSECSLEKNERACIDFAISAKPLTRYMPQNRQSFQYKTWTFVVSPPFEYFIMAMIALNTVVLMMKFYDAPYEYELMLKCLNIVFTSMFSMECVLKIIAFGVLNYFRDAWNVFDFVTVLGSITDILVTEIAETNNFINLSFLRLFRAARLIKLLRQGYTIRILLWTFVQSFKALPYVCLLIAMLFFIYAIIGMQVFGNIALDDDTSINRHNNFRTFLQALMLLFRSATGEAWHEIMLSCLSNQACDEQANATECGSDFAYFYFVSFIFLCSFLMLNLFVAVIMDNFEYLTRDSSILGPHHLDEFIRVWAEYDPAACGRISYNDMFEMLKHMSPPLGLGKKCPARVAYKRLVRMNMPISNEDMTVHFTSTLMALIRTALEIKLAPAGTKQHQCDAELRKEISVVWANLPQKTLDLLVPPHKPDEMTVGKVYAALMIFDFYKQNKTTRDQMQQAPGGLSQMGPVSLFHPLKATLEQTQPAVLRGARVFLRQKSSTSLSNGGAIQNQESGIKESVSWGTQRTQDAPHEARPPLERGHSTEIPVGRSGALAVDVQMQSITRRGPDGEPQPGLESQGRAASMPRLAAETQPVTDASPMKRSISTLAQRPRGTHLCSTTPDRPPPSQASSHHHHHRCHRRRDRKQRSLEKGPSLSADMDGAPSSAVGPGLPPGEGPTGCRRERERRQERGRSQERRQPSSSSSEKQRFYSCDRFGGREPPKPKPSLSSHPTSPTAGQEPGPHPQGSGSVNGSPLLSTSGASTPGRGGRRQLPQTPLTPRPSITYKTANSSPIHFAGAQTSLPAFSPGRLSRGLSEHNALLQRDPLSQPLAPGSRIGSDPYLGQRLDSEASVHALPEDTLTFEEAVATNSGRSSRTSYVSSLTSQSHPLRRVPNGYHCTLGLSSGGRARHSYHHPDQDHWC
T1 sequence (Q02410 whole entry): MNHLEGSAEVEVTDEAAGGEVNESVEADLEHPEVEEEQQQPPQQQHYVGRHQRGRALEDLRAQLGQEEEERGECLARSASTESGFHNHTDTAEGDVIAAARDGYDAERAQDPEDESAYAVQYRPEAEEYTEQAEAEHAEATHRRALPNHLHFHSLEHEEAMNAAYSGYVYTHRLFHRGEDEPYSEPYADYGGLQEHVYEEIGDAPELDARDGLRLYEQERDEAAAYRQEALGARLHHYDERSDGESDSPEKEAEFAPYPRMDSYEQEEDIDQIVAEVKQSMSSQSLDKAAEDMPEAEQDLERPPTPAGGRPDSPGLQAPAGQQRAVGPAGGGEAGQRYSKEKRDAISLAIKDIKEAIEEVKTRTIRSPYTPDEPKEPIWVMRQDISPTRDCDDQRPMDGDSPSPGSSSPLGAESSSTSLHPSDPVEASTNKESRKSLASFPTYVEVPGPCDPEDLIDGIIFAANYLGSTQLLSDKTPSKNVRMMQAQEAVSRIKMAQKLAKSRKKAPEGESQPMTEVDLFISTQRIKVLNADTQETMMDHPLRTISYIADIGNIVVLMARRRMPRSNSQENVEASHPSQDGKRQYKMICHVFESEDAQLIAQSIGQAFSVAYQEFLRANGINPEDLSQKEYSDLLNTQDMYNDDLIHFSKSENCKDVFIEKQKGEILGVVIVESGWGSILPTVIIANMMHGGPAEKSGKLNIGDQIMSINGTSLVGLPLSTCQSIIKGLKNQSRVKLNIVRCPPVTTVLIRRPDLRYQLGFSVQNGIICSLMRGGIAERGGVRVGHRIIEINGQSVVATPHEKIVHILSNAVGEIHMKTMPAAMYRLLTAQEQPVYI
Eukaryotic translation initiation factor 4E, sequence (P63073 whole entry): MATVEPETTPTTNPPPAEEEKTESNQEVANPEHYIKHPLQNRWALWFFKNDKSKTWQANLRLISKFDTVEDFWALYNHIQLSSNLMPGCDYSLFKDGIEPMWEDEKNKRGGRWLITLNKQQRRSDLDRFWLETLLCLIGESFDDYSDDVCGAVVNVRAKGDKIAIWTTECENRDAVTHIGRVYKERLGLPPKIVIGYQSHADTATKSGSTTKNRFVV
Nonstructural protein 1, sequence (Q194T2 whole entry): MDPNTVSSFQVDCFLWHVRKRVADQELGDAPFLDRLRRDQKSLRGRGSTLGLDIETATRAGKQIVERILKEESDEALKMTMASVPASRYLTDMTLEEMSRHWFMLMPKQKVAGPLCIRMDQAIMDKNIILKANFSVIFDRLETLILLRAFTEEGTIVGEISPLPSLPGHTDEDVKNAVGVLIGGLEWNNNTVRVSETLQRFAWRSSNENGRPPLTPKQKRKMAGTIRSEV

## CCN1CCCC1CNC(=O)C(=O)Nc1ccccc1OC (stereo unspecified)
Cytochrome P450 2D6
  AC50: inconclusive
Cytochrome P450 2C9
  AC50: inconclusive

## COc1ccc(N2C(=O)NC(=O)/C(=C\c3ccc([N+](=O)[O-])s3)C2=O)cc1
[1]
  IC50: 10.3 µM (active)
[2]
  EC50: 3.77 µM (active)
[3]
  EC50: > 60 µM (inconclusive)
[4]
  IC50: 18.2 µM (active)
Genome polyprotein
  IC50: 39.1 µM (active)
[5]
  AC50: > 20 µM (inactive)

## CCOc1cc(CNCCCN2CCOCC2)ccc1OCC(=O)Nc1cccc2ccccc12
Vero [6]
  IC50: 18.6 µM (active)
Vero [7]
  CC50: > 25 µM (active)

## CC(C)CN(CC(C)C)c1ccc(C=C2C(=O)NC(=S)NC2=O)cc1[N+](=O)[O-]
[8]
  IC50: 42.1 µM (inactive)
[9]
  EC50: 1.88 µM (active)
Genome polyprotein
  IC50: 15.9 µM (active)

## CCOC(=O)c1cnc(-c2ccccc2)nc1Oc1ccc(Cl)cc1
Cytochrome P450 2D6
  AC50: inconclusive

## COc1cc(NC(=O)c2ccccc2)ccc1NC(=O)c1cc2ccccc2o1
[1]
  IC50: > 50 µM (inactive)
[4]
  IC50: > 56.8 µM (not active)

## C[C@@H]1CN([C@H](C)CO)C(=O)c2cc(NS(=O)(=O)c3ccc(Cl)cc3)ccc2O[C@@H](C)CCCCO[C@@H]1CN(C)CC1CCCCC1
[10]
  AC50: 9.37 µM (active)
Paired box protein Pax-8
  AC50: 9.23 µM (active)
[11]
  AC50: 18.8 µM (active)
[12]
  AC50: 44.4 µM (active)

## CCN(CC)CCCNC(=O)CC1Sc2ccccc2NC1=O (stereo unspecified)
[8]
  IC50: > 64 µM (inactive)

## O=C(CCn1cnc2ccccc2c1=O)Nc1ccc(S(=O)(=O)N2CCCCC2)cc1
[13]
  IC50: 38.4 µM (not active)

## Cc1cccn2cc(COc3ccc(-c4ccccc4)cc3)nc12
Vero [6]
  IC50: 11.6 µM (active)
Vero [7]
  CC50: > 25 µM (active)

## CCC(=O)Nc1ccc(C(=O)NNC(=O)c2cc([N+](=O)[O-])cc([N+](=O)[O-])c2)cc1
[14]
  CC50: > 40 µM (active)
Cells [15]
  IC50: 10.3 µM (active)

## Clc1ccc(-n2nnnc2CN2CCOCC2)cc1
Cytochrome P450 2D6
  AC50: inconclusive
Cytochrome P450 2C9
  AC50: inconclusive

## O=C(O)[C@H]1C[C@H](C(=O)O)N1
Cytochrome P450 2D6
  AC50: inconclusive

## COc1ccc(CC(=O)Nc2cc(C)ccn2)cc1
[13]
  IC50: 21.4 µM (not active)

## O=C(Nc1ccccc1F)N1CCCCN2[C@@H](CO)[C@H](c3ccc(C#Cc4cccnc4)cc3)[C@@H]2C1
[16]
  AC50: 1.1 µM (active)
[17]
  AC50: 0.824 µM (active)
[18]
  AC50: 0.949 µM (active)
[19]
  AC50: 0.652 µM (active)

## C[C@H]1CCCCO[C@H](CN(C)C(=O)Nc2ccc(C(F)(F)F)cc2)[C@@H](C)CN([C@@H](C)CO)C(=O)c2cc(NS(=O)(=O)c3ccccc3)ccc2O1
Paired box protein Pax-8
  AC50: 6.7 µM (active)
[11]
  AC50: 45.8 µM (active)
[12]
  AC50: 40.6 µM (active)

## O=[N+]([O-])c1cccc(/C=N/Nc2nc(NCc3ccccc3)nc(N3CCOCC3)n2)c1O
Vero [6]
  IC50: 12.2 µM (active)
[20]
  EC50: 14.1 µM (active)
Nonstructural protein 1
  IC50: 6.2 µM (active)
[21]
  EC50: 11.4 µM (active)
Vero [7]
  CC50: 14.7 µM (active)
[22]
  EC50: 15 µM (active)
Cells [23]
  EC50: 13.4 µM (active)
Cells [24]
  EC50: > 350 µM (not active)

## Cc1ccc(S(=O)(=O)Nc2ccc3c(c2)C(=O)N([C@@H](C)CO)C[C@H](C)[C@@H](CN(C)Cc2ccc(C(F)(F)F)cc2)OCCCC[C@H](C)O3)cc1
[10]
  AC50: 24.1 µM (active)
Paired box protein Pax-8
  AC50: 7.48 µM (active)
[11]
  AC50: 46.9 µM (active)
[12]
  AC50: 29.5 µM (active)

## CCOC(=O)CCCc1sc(N)nc1-c1[nH]c(O)nc1C
[13]
  IC50: > 93.1 µM (not active)

## Cc1cc(O)ccc1-c1cnc2ccccc2n1
[13]
  IC50: 28.1 µM (not active)

— ChEMBL document CHEMBL1201862, “PubChem BioAssay data set” (2004)
